Results from ChEMBL document CHEMBL1201862, “PubChem BioAssay data set” (2004).
The source made the active and inactive calls.

What was measured:
[1] = molecular target: Peroxisome proliferator-activated receptor gamma/Nuclear receptor coactivator 1 (Homo sapiens, UniProt P37231); format: functional;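 further: agonist potency as compounds enhance coactivator SRC-1 recruitment to PPARgamma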
[2] = molecular target: Peroxisome proliferator-activated receptor gamma/Nuclear receptor coactivator 3 (Homo sapiens, UniProt P37231); format: functional;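 further: agonist potency for raising coactivator recruitment to the receptor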
[3] = molecular target: Peroxisome proliferator-activated receptor gamma/Nuclear receptor coactivator 2 (Homo sapiens, UniProt P37231); format: functional;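 further: agonist potency for raising coactivator recruitment to the receptor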
[4] = molecular target: Cytochrome P450 2C9 (Homo sapiens, UniProt P11712); conditions: Potency
[5] = test system: Streptococcus; experiment: Luminescence Microorganism-Based Dose Response Follow up to Identify Compounds Cytotoxic to Streptococcus. [Related pubchem assays: 1677 (Project Summary), 1915, 1914, 1902 (Retest at Dose), 1900 (Counter Screen), 1662 (Primary HTS)]; format: functional, organism-based
[6] = test system: Streptococcus; experiment: GAS UMAA2166 growth inhibition – luminescence, BacTiterGlo, counter-screen for streptokinase expression inhibitor project, dose response (AID 1915); format: functional, organism-based;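 further: potency for reduction of bacterial viability or growth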
[7] = molecular target: T1, Streptokinase A (Streptococcus pyogenes serotype M1, UniProt P10520); experiment: viability-normalized secreted streptokinase activity reduction – plasminogen activation absorbance, OD405, dose response (AID 1914); format: functional, Streptococcus pyogenes M1 GAS;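 further: secreted streptokinase activity via plasminogen activation per viability signal from cell pellet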
T1 sequence (P10520 whole entry): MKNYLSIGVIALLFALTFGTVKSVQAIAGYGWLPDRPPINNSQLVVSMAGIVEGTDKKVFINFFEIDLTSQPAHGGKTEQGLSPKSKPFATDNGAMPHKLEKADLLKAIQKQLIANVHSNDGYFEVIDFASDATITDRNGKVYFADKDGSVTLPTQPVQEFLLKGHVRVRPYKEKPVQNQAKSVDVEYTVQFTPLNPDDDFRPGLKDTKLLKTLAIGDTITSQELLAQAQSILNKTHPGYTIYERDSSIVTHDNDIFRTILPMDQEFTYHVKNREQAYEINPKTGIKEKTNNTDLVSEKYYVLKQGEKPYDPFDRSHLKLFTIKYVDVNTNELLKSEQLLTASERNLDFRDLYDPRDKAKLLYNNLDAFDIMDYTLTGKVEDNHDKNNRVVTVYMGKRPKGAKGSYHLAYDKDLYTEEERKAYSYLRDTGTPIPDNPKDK

[8] = luciferase reporter signal reduction – luminescence, H4-C neuroglioblastoma cells, dose response (AID 2458); format: functional, cell-based;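 further: H4 neuroglioblastoma cells stably carrying a luciferase reporter gene fusion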
[9] = luciferase reporter signal suppression in cells – H4 neuroglioma cells, luminescence, dose response (AID 1990); format: functional, cell-based
[10] = DRD fibroblast viability loss – cell-based, non-viral oncogenic, luminescence, dose response (AID 1934); format: functional; conditions: Homo sapiens
[11] = test system: Vero; experiment: cells; format: functional; conditions: Chlorocebus sabaeus
[12] = HEK-293T viability loss after treatment – luminescence, T-cell screen hits, cytotoxicity control for TCR NF-kB inhibitor project, dose response (AID 489026); format: functional, cell-based;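 further: cells exposed to compound about 14 hours before the viability readout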
[13] = Luminescence Cell-Based Dose Response HTS to Identify Inhibitors of 5'UTR Stem-Loop Driven Prion Protein mRNA Translation in H4 Neuroglioblastoma Cells. [Related pubchem assays: 1827 (Project Summary), 1813 (Primary HTS)]; format: functional
[14] = test system: Vero; experiment: mammalian cell viability reduction – secondary assay, cytotoxicity control for West Nile virus antiviral project, dose response (AID 1650); format: functional; conditions: Chlorocebus sabaeus
[15] = test system: BJ; experiment: growth inhibition of engineered Ras-driven BJ cells – cell-based, alamar blue fluorescence, cherrypicked samples, dose response (AID 2631); format: functional; conditions: Homo sapiens;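 further: confirmatory dose-response assay in RAS-dependent BJ fibroblasts engineered with TERT, LT and ST, with cytotoxicity read by fluorescence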
[16] = test system: BJ; experiment: cells; format: functional, cell-based; conditions: Homo sapiens
[17] = test system: Vero; experiment: cells; format: functional, cell-based; conditions: Chlorocebus sabaeus
[18] = test system: BJ; experiment: BJ-TERT-LT-ST fibroblast viability loss – cell-based, RAS-independent, luminescence, dose response (AID 1935); format: functional; conditions: Homo sapiens;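 further: BJ fibroblasts immortalized with TERT plus LT and ST oncogenes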
[19] = molecular target: Paired box protein Pax-8 (Homo sapiens, UniProt Q06710); experiment: PAX8 transcriptional activity inhibition in RMG-I – RMG-I cells, luciferase, cherry-pick, dose response (AID 687027); format: functional, cell-based;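 further: luciferase reporter driven by Pax8 target thyroperoxidase promoter measured by SteadyGlo luminescence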
[20] = general cell-killing toxicity readout – plate reader, dry powder samples, cytotoxicity control for PAX8 inhibitor project, dose response (AID 743021); format: functional, cell-based
[21] = Luminescence-based counterscreen assay for KLF5 inhibitors: dose response cell-based high throughput screening assay to identify cytotoxic compounds using the IEC-6 intestinal epithelial cell line. [Related pubchem assays: 1700 (Primary screen.), 1834 (Confirmation screen.), 1858 (Summary AID.), 1905 (Counterscreen.)]; format: functional
[22] = test system: BJ; experiment: BJ-TERT fibroblast viability loss – cell-based, RAS-independent, luminescence, dose response (AID 1933); format: functional; conditions: Homo sapiens
[23] = alpha-synuclein stem-loop luciferase translation blockers – H4 neuroglioma cells, luminescence, confirmation (AID 1988); format: functional, cell-based
[24] = alpha-synuclein stem-loop translation blockers – luminescence, H4 neuroglioblastoma cells, dose confirmation, confirmation (AID 2454); format: functional, cell-based;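 further: H4 neuroglioblastoma cells carrying an alpha-synuclein 5'UTR luciferase reporter; potency for inhibition of the luciferase signal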
[25] = cells; format: functional, cell-based
[26] = molecular target: T2, Estrogen receptor (Homo sapiens, UniProt P03372);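 further: potency for inhibiting coactivator peptide recruitment to the receptor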
T2 sequence (P03372 whole entry): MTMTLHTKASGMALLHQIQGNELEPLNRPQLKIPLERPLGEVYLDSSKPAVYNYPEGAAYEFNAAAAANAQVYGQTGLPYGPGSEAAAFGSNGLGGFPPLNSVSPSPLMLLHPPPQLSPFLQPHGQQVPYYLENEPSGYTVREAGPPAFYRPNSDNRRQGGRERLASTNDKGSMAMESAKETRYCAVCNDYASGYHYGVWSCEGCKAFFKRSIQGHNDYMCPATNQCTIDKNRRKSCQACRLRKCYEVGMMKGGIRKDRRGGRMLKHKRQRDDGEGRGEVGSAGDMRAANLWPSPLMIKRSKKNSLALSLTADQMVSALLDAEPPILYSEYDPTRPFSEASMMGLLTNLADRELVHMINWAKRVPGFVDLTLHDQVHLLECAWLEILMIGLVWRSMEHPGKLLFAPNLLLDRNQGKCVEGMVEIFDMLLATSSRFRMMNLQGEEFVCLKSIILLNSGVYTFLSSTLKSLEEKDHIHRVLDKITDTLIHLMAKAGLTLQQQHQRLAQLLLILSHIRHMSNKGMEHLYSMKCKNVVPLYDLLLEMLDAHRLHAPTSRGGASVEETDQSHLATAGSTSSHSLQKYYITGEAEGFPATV

[27] = molecular target: T3, Polyadenylate-binding protein 1 (Homo sapiens, UniProt P11940); experiment: MLLE domain peptide-binding blockers, IC50 – biochemical, fluorescence polarization, FITC-PAM2 peptide, dose response (AID 602259); format: functional; conditions: read-out: IC50_Mean
[28] = molecular target: T3, Polyadenylate-binding protein 1; experiment: MLLE binding blockers, Cy5 peptide tracer – biochemical, fluorescence polarization, Cy5-PAM2 peptide, secondary, miRNA deadenylation inhibitor project, dose response (AID 602260); format: functional; conditions: read-out: IC50_Mean
[29] = molecular target: NS3 (Hepatitis C virus, UniProt A3EZJ3); experiment: PubChem AID 2173; design: species or system Hepacivirus hominis
[30] = molecular target: T4, RNA-binding protein pos-1 (Caenorhabditis elegans, UniProt G5EF15); experiment: disruptors of C. elegans POS-1 RNA interaction – biochemical, fluorescence polarization, dose response (AID 1964);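 further: purified POS-1 fused to maltose binding protein made in E. coli; potency of compounds blocking POS-1 binding to fluorescent RNA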
T4 sequence (G5EF15 whole entry): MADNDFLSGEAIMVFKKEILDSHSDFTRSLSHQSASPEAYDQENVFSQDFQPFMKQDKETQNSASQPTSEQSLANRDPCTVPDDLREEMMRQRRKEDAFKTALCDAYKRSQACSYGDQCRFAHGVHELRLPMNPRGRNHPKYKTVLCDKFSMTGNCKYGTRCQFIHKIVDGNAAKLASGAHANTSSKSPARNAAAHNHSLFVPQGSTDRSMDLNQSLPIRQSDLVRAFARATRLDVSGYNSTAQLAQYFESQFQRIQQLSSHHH

[31] = molecular target: T5, Zinc finger protein mex-5 (Caenorhabditis elegans, UniProt Q9XUB2); experiment: potency of MEX-5 RNA-binding blockers – biochemical, C. elegans, fluorescence polarization, dose response (AID 1960)
T5 sequence (Q9XUB2 whole entry): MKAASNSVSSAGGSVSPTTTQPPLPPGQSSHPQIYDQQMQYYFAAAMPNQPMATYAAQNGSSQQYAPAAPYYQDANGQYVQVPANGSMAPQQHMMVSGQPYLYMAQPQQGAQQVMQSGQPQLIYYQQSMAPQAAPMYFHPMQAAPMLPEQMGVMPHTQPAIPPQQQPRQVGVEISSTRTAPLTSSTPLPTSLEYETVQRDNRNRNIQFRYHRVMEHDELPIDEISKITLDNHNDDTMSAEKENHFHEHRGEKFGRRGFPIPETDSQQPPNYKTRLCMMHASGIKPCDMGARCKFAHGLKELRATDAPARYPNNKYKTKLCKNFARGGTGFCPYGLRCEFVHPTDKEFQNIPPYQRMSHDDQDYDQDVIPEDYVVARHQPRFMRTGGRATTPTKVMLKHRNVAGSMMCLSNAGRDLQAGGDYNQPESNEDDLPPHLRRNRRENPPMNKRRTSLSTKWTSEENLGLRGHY

[32] = molecular target: T6, Neuropeptides B/W receptor type 1 (Homo sapiens, UniProt P48145); experiment: Fluorescence-based dose response cell-based high throughput screening assay to identify antagonists of the G-protein coupled receptor 7 (GPR7). [Related pubchem assays: 1952 (Screening assay (GPR7 antagonists).), 1880 (Summary AID.)]; format: functional
T6 sequence (P48145 whole entry): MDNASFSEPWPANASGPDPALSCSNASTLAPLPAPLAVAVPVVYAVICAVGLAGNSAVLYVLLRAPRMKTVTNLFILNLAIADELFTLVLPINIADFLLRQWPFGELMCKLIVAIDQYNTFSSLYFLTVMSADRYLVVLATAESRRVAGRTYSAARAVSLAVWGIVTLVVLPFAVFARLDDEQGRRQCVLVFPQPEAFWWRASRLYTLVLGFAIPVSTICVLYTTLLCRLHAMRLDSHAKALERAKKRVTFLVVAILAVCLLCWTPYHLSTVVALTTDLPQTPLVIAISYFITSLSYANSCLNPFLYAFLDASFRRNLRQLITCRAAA

[33] = molecular target: Melanin-concentrating hormone receptor 1 (Homo sapiens, UniProt Q99705); experiment: Fluorescence-based counterscreen for antagonists of the G-protein coupled receptor 7 (GPR7): cell-based high throughput dose response assay to identify antagonists of the melanin-concentrating hormone receptor 1 (MCHR1).; format: functional
[34] = molecular target: Cytochrome P450 2D6 (Homo sapiens, UniProt P10635);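 further: CYP2D6 member of a cytochrome P450 panel assay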
Cytochrome P450 2D6, sequence (P10635 whole entry): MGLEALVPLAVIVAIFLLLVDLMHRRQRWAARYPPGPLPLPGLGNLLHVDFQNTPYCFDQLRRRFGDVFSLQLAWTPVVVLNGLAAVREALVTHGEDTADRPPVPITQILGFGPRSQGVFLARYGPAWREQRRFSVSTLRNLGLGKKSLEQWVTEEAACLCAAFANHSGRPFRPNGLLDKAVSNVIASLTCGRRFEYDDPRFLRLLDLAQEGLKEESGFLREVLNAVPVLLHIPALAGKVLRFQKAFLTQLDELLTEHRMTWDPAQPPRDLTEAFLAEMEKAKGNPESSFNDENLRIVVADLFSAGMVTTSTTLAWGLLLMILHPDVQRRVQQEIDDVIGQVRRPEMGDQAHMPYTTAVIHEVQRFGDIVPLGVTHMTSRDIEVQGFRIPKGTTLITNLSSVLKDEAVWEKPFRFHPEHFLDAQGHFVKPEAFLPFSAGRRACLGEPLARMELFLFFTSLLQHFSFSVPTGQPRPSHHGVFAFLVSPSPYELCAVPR

T3 sequence (P11940 whole entry, the tested form may be a part): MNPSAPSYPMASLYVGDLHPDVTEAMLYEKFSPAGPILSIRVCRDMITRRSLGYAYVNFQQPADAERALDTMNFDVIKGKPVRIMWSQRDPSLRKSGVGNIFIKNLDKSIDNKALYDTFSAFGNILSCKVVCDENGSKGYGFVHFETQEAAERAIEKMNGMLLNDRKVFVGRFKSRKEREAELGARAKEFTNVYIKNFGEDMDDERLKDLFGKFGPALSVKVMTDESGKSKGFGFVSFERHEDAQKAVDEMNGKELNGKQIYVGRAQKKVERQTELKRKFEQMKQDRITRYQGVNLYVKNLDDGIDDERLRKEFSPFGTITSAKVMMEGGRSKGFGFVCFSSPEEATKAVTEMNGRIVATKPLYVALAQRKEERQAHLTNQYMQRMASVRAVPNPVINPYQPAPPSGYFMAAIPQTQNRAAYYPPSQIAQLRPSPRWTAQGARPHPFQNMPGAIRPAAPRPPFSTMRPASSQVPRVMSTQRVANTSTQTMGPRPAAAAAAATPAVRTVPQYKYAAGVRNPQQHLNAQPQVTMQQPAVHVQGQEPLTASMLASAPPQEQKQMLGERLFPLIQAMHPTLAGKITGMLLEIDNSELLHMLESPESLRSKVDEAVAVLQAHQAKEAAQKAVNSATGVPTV
Cytochrome P450 2C9, sequence (P11712 whole entry): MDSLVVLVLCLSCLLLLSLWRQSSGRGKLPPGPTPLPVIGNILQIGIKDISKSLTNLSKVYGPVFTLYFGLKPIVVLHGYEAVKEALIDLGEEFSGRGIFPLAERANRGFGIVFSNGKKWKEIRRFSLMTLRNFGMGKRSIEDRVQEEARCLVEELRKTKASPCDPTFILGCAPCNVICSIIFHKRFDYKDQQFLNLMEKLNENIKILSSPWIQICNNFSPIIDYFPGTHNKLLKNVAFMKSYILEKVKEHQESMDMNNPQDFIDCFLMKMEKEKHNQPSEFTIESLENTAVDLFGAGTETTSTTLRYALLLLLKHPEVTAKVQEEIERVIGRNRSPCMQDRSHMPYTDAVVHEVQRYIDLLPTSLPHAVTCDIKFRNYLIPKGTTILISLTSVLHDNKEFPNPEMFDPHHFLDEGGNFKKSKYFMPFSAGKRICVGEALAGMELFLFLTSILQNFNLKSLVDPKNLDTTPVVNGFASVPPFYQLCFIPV
NS3, sequence (A3EZJ3 whole entry, the tested form may be a part): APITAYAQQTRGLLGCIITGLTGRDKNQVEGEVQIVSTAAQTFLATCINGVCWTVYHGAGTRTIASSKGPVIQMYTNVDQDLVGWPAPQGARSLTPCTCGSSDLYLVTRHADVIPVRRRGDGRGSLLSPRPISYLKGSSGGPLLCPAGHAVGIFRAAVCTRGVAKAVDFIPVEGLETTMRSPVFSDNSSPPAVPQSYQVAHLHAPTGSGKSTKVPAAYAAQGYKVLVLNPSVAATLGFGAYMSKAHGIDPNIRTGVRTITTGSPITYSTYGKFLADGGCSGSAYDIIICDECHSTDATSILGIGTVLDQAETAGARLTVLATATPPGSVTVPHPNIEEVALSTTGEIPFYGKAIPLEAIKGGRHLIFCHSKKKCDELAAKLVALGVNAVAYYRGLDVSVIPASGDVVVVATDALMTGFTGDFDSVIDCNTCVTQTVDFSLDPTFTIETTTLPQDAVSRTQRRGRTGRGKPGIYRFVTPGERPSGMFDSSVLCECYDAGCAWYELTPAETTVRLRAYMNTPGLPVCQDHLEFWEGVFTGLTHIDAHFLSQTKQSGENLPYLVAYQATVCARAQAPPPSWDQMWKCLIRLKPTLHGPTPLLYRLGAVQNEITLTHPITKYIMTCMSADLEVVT
Melanin-concentrating hormone receptor 1, sequence (Q99705 whole entry): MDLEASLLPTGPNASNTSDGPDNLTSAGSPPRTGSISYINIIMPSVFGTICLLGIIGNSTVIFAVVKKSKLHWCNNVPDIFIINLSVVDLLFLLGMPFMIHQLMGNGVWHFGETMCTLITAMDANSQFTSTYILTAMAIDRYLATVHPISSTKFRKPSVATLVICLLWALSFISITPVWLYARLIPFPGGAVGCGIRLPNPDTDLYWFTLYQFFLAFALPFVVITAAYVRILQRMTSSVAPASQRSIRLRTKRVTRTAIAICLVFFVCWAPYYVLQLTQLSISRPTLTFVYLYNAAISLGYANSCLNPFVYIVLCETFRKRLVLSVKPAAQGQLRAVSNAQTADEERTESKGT
Paired box protein Pax-8, sequence (Q06710 whole entry): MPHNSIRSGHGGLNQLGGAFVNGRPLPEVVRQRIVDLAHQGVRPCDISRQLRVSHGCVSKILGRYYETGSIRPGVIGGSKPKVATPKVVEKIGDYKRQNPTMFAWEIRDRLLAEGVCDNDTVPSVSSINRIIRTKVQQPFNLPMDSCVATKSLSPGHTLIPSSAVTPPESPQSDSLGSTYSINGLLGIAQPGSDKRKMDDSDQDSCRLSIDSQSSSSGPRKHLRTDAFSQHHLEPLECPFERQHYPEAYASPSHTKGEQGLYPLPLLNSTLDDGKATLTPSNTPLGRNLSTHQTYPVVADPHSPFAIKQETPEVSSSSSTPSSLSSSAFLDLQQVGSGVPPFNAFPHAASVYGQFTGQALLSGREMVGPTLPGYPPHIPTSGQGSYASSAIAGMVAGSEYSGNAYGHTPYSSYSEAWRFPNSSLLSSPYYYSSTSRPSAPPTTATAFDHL
Peroxisome proliferator-activated receptor gamma/Nuclear receptor coactivator 2, sequence (P37231 whole entry): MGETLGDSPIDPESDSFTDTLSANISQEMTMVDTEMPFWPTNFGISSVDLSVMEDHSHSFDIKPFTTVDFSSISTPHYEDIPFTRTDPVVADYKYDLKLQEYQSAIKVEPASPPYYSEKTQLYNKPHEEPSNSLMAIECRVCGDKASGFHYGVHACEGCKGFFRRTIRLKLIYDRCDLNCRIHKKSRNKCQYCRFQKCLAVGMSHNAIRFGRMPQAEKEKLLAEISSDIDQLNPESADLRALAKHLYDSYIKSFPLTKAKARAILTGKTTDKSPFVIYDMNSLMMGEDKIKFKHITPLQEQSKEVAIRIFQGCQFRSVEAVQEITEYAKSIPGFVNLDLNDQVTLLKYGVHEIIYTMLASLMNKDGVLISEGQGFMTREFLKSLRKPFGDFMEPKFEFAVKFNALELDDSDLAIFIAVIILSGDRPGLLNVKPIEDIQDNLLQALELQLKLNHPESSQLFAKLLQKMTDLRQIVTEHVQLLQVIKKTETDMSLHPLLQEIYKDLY
Peroxisome proliferator-activated receptor gamma/Nuclear receptor coactivator 2, sequence (Q15596 whole entry, further chain): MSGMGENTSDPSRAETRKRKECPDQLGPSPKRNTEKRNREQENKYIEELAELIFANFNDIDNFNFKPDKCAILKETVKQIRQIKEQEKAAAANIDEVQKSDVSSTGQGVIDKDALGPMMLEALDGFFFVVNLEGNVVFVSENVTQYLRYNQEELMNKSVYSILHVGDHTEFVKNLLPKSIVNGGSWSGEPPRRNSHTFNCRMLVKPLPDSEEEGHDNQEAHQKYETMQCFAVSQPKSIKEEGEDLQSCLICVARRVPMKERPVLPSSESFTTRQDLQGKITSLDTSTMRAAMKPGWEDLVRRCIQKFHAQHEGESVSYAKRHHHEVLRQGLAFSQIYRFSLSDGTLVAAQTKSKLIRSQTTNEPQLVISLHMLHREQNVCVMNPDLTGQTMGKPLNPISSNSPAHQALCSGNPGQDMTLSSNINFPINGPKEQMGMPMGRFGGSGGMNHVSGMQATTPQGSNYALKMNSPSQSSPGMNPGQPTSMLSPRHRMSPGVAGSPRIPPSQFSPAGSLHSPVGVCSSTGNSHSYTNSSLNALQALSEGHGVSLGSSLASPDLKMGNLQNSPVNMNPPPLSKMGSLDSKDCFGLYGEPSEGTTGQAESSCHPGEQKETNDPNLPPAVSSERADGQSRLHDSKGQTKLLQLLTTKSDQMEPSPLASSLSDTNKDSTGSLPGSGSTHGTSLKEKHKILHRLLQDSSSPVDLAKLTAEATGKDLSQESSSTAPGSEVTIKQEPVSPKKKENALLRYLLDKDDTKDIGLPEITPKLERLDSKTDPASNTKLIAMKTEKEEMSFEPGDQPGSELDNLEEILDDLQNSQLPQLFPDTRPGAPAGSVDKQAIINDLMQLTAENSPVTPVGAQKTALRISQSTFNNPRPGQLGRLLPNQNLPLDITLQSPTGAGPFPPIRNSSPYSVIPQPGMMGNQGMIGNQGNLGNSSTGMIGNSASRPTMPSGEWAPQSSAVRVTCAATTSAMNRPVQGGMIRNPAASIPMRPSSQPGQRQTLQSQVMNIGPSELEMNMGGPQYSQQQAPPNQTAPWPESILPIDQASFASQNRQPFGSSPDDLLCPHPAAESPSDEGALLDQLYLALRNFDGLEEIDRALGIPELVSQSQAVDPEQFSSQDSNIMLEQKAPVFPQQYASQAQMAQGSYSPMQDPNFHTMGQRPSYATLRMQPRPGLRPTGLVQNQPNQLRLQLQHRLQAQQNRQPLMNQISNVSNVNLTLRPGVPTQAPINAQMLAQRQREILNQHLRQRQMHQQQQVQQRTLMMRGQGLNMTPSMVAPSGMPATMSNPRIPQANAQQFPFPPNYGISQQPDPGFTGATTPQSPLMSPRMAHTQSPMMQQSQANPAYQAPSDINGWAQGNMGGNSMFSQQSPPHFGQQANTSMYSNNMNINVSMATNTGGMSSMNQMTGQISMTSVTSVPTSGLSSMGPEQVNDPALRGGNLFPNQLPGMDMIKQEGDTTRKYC

SMILES: O=C(CCN1C(=O)c2ccccc2C1=O)Nc1ccc(-c2nc3ccccc3o2)cc1
- EC50 [1]: 74.4 µM (not active)
- EC50 [2]: > 79.4 µM (not active)
- EC50 [3]: 71.6 µM (not active)

SMILES: CCOC(=O)OCC1OC(c2ccc(C(C)=O)cc2)C=CC1Oc1ccc(-c2ccccc2)cc1 (centres undefined)
- AC50 [4]: 5.01 µM (inconclusive)

SMILES: Cc1cc(C)c(NC(=O)c2oc3ccccc3c2COc2ccccc2)c(C)c1
- EC50 [5]: 122 µM (active)
- EC50 [6]: > 150 µM (not active)
- EC50 [7]: 6.21 µM (active)

SMILES: CCCC/N=C/[C@]12CCC(O)CC1(O)CCC1[C@@H]2CC[C@]2(C)[C@H](C3C=CC(=O)O3)CCC12O (some centres undefined)
- EC50 [8]: 0.238 µM (active)
- EC50 [9]: < 0.1 µM (active)
- EC50 [10]: 0.372 µM (active)
- CC50 [11]: 1.27 µM (active)
- IC50 [12]: > 80 µM (inactive)
- EC50 [13]: < 0.1 µM (active)
- CC50 [14]: 0.96 µM (active)
- EC50 [15]: 0.45 µM (active)
- EC50 [16]: 0.538 µM (active)
- IC50 [17]: < 0.05 µM (active)
- EC50 [18]: 3.01 µM (inconclusive)
- AC50 [19]: 2.19 µM (active)
- AC50 [20]: 55.4 µM (active)
- IC50 [21]: > 39.8 µM (not active)
- EC50 [22]: 0.321 µM (active)
- EC50 [23]: < 0.1 µM (active)
- EC50 [24]: 0.203 µM (active)
- EC50 [25]: 0.263 µM (active)

SMILES: CCOc1ccc(/C=c2\sc3nc(-c4ccco4)nn3c2=O)cc1OCC
- IC50 [26]: > 50 µM (not active)
- IC50 [27]: 48.8 µM (inactive)
- IC50 [28]: > 66 µM (inactive)
- IC50 [29]: 24.7 µM (not active)
- EC50 [30]: > 300 µM (not active)
- EC50 [31]: > 300 µM (not active)

SMILES: Cc1ccc(NCC(=O)N/N=C/c2ccc(OC(=O)c3ccco3)cc2)cc1
- IC50 [32]: > 43.8 µM (not active)
- IC50 [33]: > 43.8 µM (not active)
- AC50 [34]: 15.8 µM (inconclusive)
